From US20230193038A1, “METHODS OF DIGITAL PRINTING USING MODIFIED INDIGO COMPOUNDS” (VP Jeanswear LP, priority 2017, published 2023)

Assay: Conversion of the modified indigo compound to indigo under hydrolyzing conditions
Assay type: physicochemical
Procedure: The hydrolysis is performed using any chemical compound or condition that is capable of converting the dye compound to indigo. In some embodiments, the hydrolysis is performed in aqueous compositions which contain a hydrolyzing agent. In other embodiments, the hydrolyzing agent may be selected by one skilled in the art and may include, without limitation, a base, heat, steam, or a combination thereof.

hydrolysis to indigo: hydrolyzes to indigo
Structure (SMILES): O=C1/C(=C2/C(=O)c3ccccc3N2C(=O)c2ccncc2)N(C(=O)c2ccncc2)c2ccccc21 [Compound 37]
